# Several values for one entry are separate records, joined by “and”; a condition that tells them apart may be missing. Equal values may be shown once. Read-outs that look alike come from different tables or passages of the source.
# Tested on: mice
# Type: in vivo
# Set-up: Paw Thickness / Paw thickness AVG 30 / Paw thickness AVG 60 / Paw thickness AVG 120: unit not given here
# Settings: for Paw Thickness: duplicate readings; for Paw thickness %BL CARR: used for Figure 3E
# [1] = 30 min, Carrageenan 30 µg, Group Average of 5 mice
# [2] = 30 min, Carrageenan 30 µg, individual mouse
# [3] = 60 min, Carrageenan 30 µg, Group Average of 5 mice
# [4] = 60 min, Carrageenan 30 µg, individual mouse
# [5] = 120 min, Carrageenan 30 µg, Group Average of 5 mice
# [6] = 120 min, Carrageenan 30 µg, individual mouse
# [7] = 180 min, Carrageenan 30 µg, Group Average of 5 mice
# [8] = 180 min, Carrageenan 30 µg, individual mouse
# [9] = 24 hours, Carrageenan 30 µg, Group Average of 5 mice
# [10] = 24 hours, Carrageenan 30 µg, individual mouse
smiles,measurement,setting,value
"O=C([O-])C1CCC2(CC1)CC(Nc1ncnc3[nH]c4c(F)cccc4c13)C2.[Na+] (stereo not drawn) [Compound 77, [Na+].[O-]C(=O)C1CCC2(CC(C2)NC=3N=CN=C4NC=5C(F)=CC=CC5C34)CC1]",effect on carrageenan-induced paw edema,"30 mg/kg i.p., one day after carrageenan",significantly reduced
same,"Paw thickness %BL CARR, Group Average",[1],92.2% and 96.7%
same,"Paw thickness %Baseline, Group Average",[1],118.7% and 118.1%
same,"Paw thickness AVG 30, Group Average",[1],2.0
same,Paw thickness %Baseline,[2],122.7% and 124.6% and 120.5% and 111.5% and 114.1% and 116.5% and 122.2% and 107.4% and 119.7% and 124.9%
same,Paw thickness AVG 30,[2],2.0 and 2.2 and 2.1 and 1.9 and 1.8
same,Paw Thickness,[2],1.9 and 2.04 and 2.2 and 2.1 and 2.14 and 2.06 and 1.98 and 2.08 and 1.95 and 1.77 and 1.88 and 2 and 2.13 and 2.02
same,Paw thickness %BL CARR,[2],89.5% and 101.4% and 91.7% and 92.1% and 86.4% and 102.3% and 101.6% and 84.9% and 96.7% and 98.1%
same,"Paw thickness %BL CARR, Group Average",[3],91.8% and 95.5%
same,"Paw thickness %Baseline, Group Average",[3],118.2% and 116.8%
same,"Paw thickness AVG 60, Group Average",[3],2.0
same,Paw thickness %Baseline,[4],124.6% and 118.8% and 118.2% and 112.4% and 117.1% and 109.8% and 115.0% and 114.7% and 118.3% and 126.1%
same,Paw thickness AVG 60,[4],2.0 and 2.1 and 1.9
same,Paw Thickness,[4],2.1 and 1.9 and 2 and 2.02 and 1.97 and 1.98 and 2.05 and 2.09 and 2.2
same,Paw thickness %BL CARR,[4],90.9% and 96.7% and 89.9% and 92.8% and 88.6% and 96.4% and 95.6% and 90.7% and 99.1%
same,"Paw thickness %BL CARR, Group Average",[5],89.1% and 94.8%
same,"Paw thickness %Baseline, Group Average",[5],114.9% and 115.9%
same,"Paw thickness AVG 120, Group Average",[5],2.0
same,Paw thickness %Baseline,[6],126.2% and 111.6% and 112.4% and 111.0% and 113.2% and 111.3% and 115.8% and 115.9% and 114.2% and 122.2%
same,Paw thickness AVG 120,[6],2.0 and 1.9 and 2.1
same,Paw Thickness,[6],2 and 2.05 and 1.9 and 1.95 and 2.04 and 2.1 and 2.07 and 1.91 and 2.03 and 1.94 and 1.97
same,Paw thickness %BL CARR,[6],92.0% and 90.8% and 85.5% and 91.6% and 85.7% and 97.7% and 96.3% and 92.3% and 96.0%
same,"Paw thickness %BL CARR, Group Average",[7],89.9% and 92.7%
same,"Paw thickness %Baseline, Group Average",[7],115.8% and 113.3%
same,"Paw thickness AVG 180, Group Average",[7],2.0
same,Paw thickness %Baseline,[8],125.5% and 114.5% and 111.0% and 112.4% and 115.6% and 112.7% and 106.9% and 111.8% and 115.9% and 118.9%
same,Paw thickness AVG 180,[8],2.0 and 1.9
same,Paw Thickness,[8],2.03 and 2 and 1.95 and 1.9 and 2.09 and 2.02 and 1.91 and 1.99 and 1.96
same,Paw thickness %BL CARR,[8],91.6% and 93.2% and 84.4% and 92.8% and 87.5% and 99.0% and 88.9% and 88.4% and 93.7% and 93.4%
same,"Paw thickness %BL CARR, Group Average",[9],85.7% and 94.0%
same,"Paw thickness %Baseline, Group Average",[9],110.4% and 114.8%
same,"Paw thickness AVG 24h, Group Average",[9],1.9 and 2.0
same,Paw thickness %Baseline,[10],118.4% and 111.0% and 109.2% and 105.9% and 107.4% and 115.6% and 114.7% and 114.5% and 120.1%
same,Paw thickness AVG 24h,[10],1.9 and 1.8 and 2.0
same,Paw Thickness,[10],1.9 (2×) and 1.83 and 2 and 1.92 and 1.87 and 1.84 and 1.8 and 1.85 and 1.93 and 1.95 (2×)
same,Paw thickness %BL CARR,[10],86.4% and 90.3% and 83.1% and 87.4% and 81.3% and 101.5% and 90.8% and 90.7% and 92.5% and 94.3%
